Laboratory results from US8962691B2, “Retinoid replacements and opsin agonists and methods for the use thereof” (University of Washington, priority 2003, dated 2015).

Columns and labels:
[1] = Retinal in blood circulation after intravenous injection or gavage; format: in vivo, mouse; details: for t1/2 in the circulation: intravenous injection
Protocol: Oral gavage was carried out as described previously (Van Hooser et al., Proc. Natl. Acad. Sci. USA 97:8623-28 (2000)).
The chemicals were purchased from Sigma/Aldrich unless otherwise specified. Solution A contained 10 mg of 9-cis-retinal, 75 mg of Cremophor EL, 1 mg of α-tocopherol, and 0.6 mg of benzoic acid suspended in 1 ml of lactated Ringer's solution (Baxter). The mixture was vortexed for 10 minutes and centrifuged for 10 minutes at 20,000×g, and the concentration of 9-cis-retinal (7.7 mM) was determined spectrophotometrically. Solution B contained 13 mg of 9-cis-retinal, 50 mg of Cremophor EL, 10 mg of dipalmitoylphosphatidyl choline, and 40 mg of 2-hydroxypropyl-β-cyclodextrin suspended in 1 ml of lactated Ringer's solution (Baxter). The mixture was vortexed for 10 minutes and centrifuged for 10 minutes at 20,000×g, and the concentration of 9-cis-retinal (10 mM) was determined spectrophotometrically. Solutions A and B (typically, 100 μl) were delivered to the mouse lateral tail vein employing a 1-ml syringe equipped with a 27-gauge needle and a restraint tube.

phosphorylated opsin = biological target: T1, phosphorylated opsin (Mus musculus, UniProt P15409); experiment: Immunocytochemistry with anti-phosphorylated Rh antibody; format: in vivo; details: gavaged once at PND 30, analyzed 48 hours post-treatment, dark
T1 construct: The retinas from Rpe65+/+ mice and Rpe65−/− mice were fixed in constant darkness; from tissue; host or cells: retina sections of Rpe65-/- and Rpe65+/+ mice (in vivo dosing)
Protocol: Rpe65 mice were divided into five groups: Rpe65−/−, Rpe65−/− that were gavaged with 9-cis-retinal and kept in the dark; Rpe65−/− that were gavaged with 9-cis-retinal, exposed to a flash, and kept in the dark for 15 min; Rpe65+/+ that were kept in the dark; and Rpe65+/+ that were exposed to a flash and kept in the dark for 15 minutes. For the flash studies, dark-adapted mice were subjected to a flash (Sunpak 433D, 1 ms) from a distance of 2 cm. The retinas were fixed in 4% paraformalydehyde in 0.13 M sodium phosphate, pH 7.4, for 15 hours at 4° C., and the tissues were transferred to 5, 10, or 15% sucrose in 0.13 M sodium phosphate, pH 7.4, for 30 minutes each time and stored overnight in 20% sucrose in the same buffer at 4° C. The tissue was then transferred to optimal cutting temperature cryoembedding compound and sectioned at 10 μm. The cryosections were incubated overnight at 4° C. in mouse monoclonal anti-phosphorylated Rh A11-82P antibody diluted 1:10. Triton X-100 (0.1%) was included in all phosphate-buffered saline solutions to facilitate antibody penetration. The controls were processed by omitting primary antibodies from the incubation buffer. After incubation in primary antibodies, the sections were rinsed with phosphate-buffered saline and then incubated with indocarbocyanine (Cy3)-conjugated goat anti-mouse IgG (1:200). […]

T1 sequence (P15409 whole entry): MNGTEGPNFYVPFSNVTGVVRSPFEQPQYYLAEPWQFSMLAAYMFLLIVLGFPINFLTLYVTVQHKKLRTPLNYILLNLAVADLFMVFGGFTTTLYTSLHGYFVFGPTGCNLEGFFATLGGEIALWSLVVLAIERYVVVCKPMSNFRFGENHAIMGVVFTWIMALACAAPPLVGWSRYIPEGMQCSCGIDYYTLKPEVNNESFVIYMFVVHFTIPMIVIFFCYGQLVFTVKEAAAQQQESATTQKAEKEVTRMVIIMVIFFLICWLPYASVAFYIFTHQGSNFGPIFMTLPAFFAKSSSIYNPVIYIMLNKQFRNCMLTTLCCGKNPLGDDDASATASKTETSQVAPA

For `CC1=C(/C=C/C(C)=C\C=C\C(C)=C\C=O)C(C)(C)CCC1` [9-cis-retinal], the “presence of retinal in the bloodstream” value ([1]; gavage) was “greater than 48 hours”, the “t1/2 in the circulation” value ([1]; in the presence of cyclodextrins) was 23 h and the “t1/2 in the circulation” value ([1]; without cyclodextrins) was 12 h. The “ROS labeling by antibody against phosphorylated opsin” value (phosphorylated opsin) was “abolished”.
